Structures can show the parent of a compound that is named as a salt.

Sequence of hBTK (full-length BTK, 6HIS-tag cleaved) (Q06187 whole entry): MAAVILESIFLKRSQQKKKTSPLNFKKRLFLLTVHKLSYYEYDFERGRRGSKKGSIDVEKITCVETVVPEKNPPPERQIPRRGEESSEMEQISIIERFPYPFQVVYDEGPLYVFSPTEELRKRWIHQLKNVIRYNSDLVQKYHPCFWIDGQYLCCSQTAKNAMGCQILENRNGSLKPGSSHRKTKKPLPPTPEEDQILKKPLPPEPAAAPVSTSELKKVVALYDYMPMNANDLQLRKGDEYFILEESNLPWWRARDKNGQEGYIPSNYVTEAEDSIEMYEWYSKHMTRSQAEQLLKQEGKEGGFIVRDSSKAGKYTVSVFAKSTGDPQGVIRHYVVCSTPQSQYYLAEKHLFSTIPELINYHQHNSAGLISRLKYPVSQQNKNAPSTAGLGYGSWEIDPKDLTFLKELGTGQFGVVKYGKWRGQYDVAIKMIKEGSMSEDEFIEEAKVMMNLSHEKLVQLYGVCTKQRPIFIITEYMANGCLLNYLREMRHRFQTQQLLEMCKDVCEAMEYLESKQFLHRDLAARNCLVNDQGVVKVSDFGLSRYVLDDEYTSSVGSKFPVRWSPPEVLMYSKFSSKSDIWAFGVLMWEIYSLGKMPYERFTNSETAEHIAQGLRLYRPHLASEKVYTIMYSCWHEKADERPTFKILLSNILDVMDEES

The experiment has as its target hBTK (full-length BTK, 6HIS-tag cleaved) (Homo sapiens (Human), UniProt Q06187). The experiment is described as follows: BTK enzymatic activity, LANCE TR-FRET assay (Assay Method C). Type of experiment: biochemical. To be noted: LANCE TR-FRET, 50 pM hBTK, 25 μM ATP; class 100-1000 is given as ≧100 nM-<1 μM; read-out: IC50 Btk activity values - Assay Method C. (Time-resolved FRET reads energy transfer from a long-lived donor to a nearby acceptor.)
What is called IC50 is the midpoint of a concentration-inhibition curve. Take `Nc1nccn2c([C@@H]3CCCN(C(=O)[C@@H]4CC(F)(F)CN4)C3)nc(-c3ccc(C(=O)Nc4cc(C(F)(F)F)ccn4)cc3)c12` [Example 337, 4-{8-amino-3-[(3R)-1-(4,4-difluoro-L-prolyl)piperidin-3-yl]imidazo[1,5-a]pyrazin-1-yl}-N-[4-(trifluoromethyl)pyridin-2-yl]benzamide]: the IC50 is less than 10 nM. As for `CCC(=O)N1CCC[C@@H](c2nc(-c3ccc(C(=O)Nc4cc(C(F)F)ccn4)cc3F)c3c(N)nccn23)C1` [Example 488, 4-{8-amino-3-[(3R)-1-propanoylpiperidin-3-yl]imidazo[1,5-a]pyrazin-1-yl}-N-[4-(difluoromethyl)pyridin-2-yl]-3-fluorobenzamide], the IC50 is less than 10 nM. The same measure for `Cn1ccc(NC(=O)c2ccc(-c3nc([C@@H]4CCCN(C(=O)C5(C)COC5)C4)n4ccnc(N)c34)cc2)n1` [Example 365, 4-(8-amino-3-{(3R)-1-[(3-methyloxetan-3-yl)carbonyl]piperidin-3-yl}imidazo[1,5-a]pyrazin-1-yl)-N-(1-methyl-1H-pyrazol-3-yl)benzamide]: 10 to 100 nM. In the case of `COCCC(=O)N1CCO[C@@H](c2nc(-c3ccc(C(=O)Nc4cc(C(F)(F)F)ccn4)cc3)c3c(N)ncc(C)n23)C1` [Example 510, 4-{8-amino-3-[(2R)-4-(3-methoxypropanoyl)morpholin-2-yl]-5-methylimidazo[1,5-a]pyrazin-1-yl}-N-[4-(trifluoromethyl)pyridin-2-yl]benzamide], the IC50 is less than 10 nM. For `Cc1ccc(NC(=O)c2ccc(-c3nc([C@@H]4CCCN(C(=O)C5(C)COC5)C4)n4ccnc(N)c34)cc2)nc1` [Example 356, 4-(8-amino-3-{(3R)-1-[(3-methyloxetan-3-yl)carbonyl]piperidin-3-yl}imidazo[1,5-a]pyrazin-1-yl)-N-(5-methylpyridin-2-yl)benzamide] the value was less than 10 nM; for `CCc1ccnc(NC(=O)c2ccc(-c3nc([C@@H]4CCCN(C(=O)C5(C)COC5)C4)n4ccnc(N)c34)cc2)c1` [Example 362, 4-(8-amino-3-{(3R)-1-[(3-methyloxetan-3-yl)carbonyl]piperidin-3-yl}imidazo[1,5-a]pyrazin-1-yl)-N-(4-ethylpyridin-2-yl)benzamide], less than 10 nM. Turning to `C[C@H]1CO[C@@H](c2nc(-c3ccc(C(=O)Nc4cc(C(F)(F)F)ccn4)cc3)c3c(N)nccn23)CN1C(=O)C1(C)COC1` [Example 515, 4-(8-amino-3-{(2R,5S)-5-methyl-4-[(3-methyloxetan-3-yl)carbonyl]morpholin-2-yl}imidazo[1,5-a]pyrazin-1-yl)-N-[4-(trifluoromethyl)pyridin-2-yl]benzamide, TFA salt], the IC50 was less than 10 nM. For `Cc1cnc(N)c2c(-c3ccc(C(=O)Nc4cc(C(F)(F)F)ccn4)cc3)nc([C@H]3CN(C(=O)[C@H](C)O)CCO3)n12` [Example 543, 4-(8-amino-3-{(2R)-4-[(2S)-2-hydroxypropanoyl]morpholin-2-yl}-5-methylimidazo[1,5-a]pyrazin-1-yl)-N-[4-(trifluoromethyl)pyridin-2-yl]benzamide, TFA salt] the value was less than 10 nM; for `CC1(CN2CCO[C@@H](c3nc(-c4ccc(C(=O)Nc5cc(C(F)(F)F)ccn5)cc4)c4c(N)nccn34)C2)COC1` [Example 507, 4-(8-amino-3-{(2R)-4-[(3-methyloxetan-3-yl)methyl]morpholin-2-yl}imidazo[1,5-a]pyrazin-1-yl)-N-[4-(trifluoromethyl)pyridin-2-yl]benzamide], less than 10 nM; for `Nc1ncnc2c1c(-c1ccc(C(=O)Nc3cc(C(F)(F)F)ccn3)cc1)nn2[C@H]1CC[C@H](C(F)(F)F)NC1` [Example 556, 4-{4-amino-1-[(3S,6R)-6-(trifluoromethyl)piperidin-3-yl]-1H-pyrazolo[3,4-d]pyrimidin-3-yl}-N-[4-(trifluoromethyl)pyridin-2-yl]benzamide, TFA salt], less than 10 nM. Consider `Cn1ncc2c1CCC[C@H]2n1nc(-c2ccc(C(=O)Nc3cc(C(F)(F)F)ccn3)cc2)c2c(N)ncnc21` [Example 552, 4-{4-amino-1-[(4R)-1-methyl-4,5,6,7-tetrahydro-1H-indazol-4-yl]-1H-pyrazolo[3,4-d]pyrimidin-3-yl}-N-[4-(trifluoromethyl)pyridin-2-yl]benzamide, TFA salt], for which the IC50 is less than 10 nM. For the compound `Cc1cnc(N)c2c(-c3ccc(C(=O)Nc4cc(C(F)(F)F)ccn4)cc3)nc([C@@H]3CCCN(C(=O)C4(C)COC4)C3)n12` [Example 453, 4-(8-amino-5-methyl-3-{(3R)-1-[(3-methyloxetan-3-yl)carbonyl]piperidin-3-yl}imidazo[1,5-a]pyrazin-1-yl)-N-[4-(trifluoromethyl)pyridin-2-yl]benzamide], the 50% inhibitory concentration (IC50) was less than 10 nM. For `Cc1noc(C)c1C(=O)N1CCC[C@@H](c2nc(-c3ccc(C(=O)Nc4cc(C(F)(F)F)ccn4)cc3)c3c(N)nccn23)C1` [Example 328] the value was less than 10 nM; for `Cc1cnc(N)c2c(-c3ccc(C(=O)Nc4cc(OC5CC5)ccn4)cc3)nc([C@@H]3CCCN(C(=O)C4CC4)C3)n12` [Example 457, 4-{8-amino-3-[(3R)-1-(cyclopropylcarbonyl)piperidin-3-yl]-5-methylimidazo[1,5-a]pyrazin-1-yl}-N-[4-(cyclopropyloxy)pyridin-2-yl]benzamide], less than 10 nM; for `Nc1nccn2c([C@H]3CN(C4COC4)CCO3)nc(-c3ccc(C(=O)Nc4cc(C(F)(F)F)ccn4)cc3)c12` [Example 550, 4-{8-amino-3-[(2R)-4-oxetan-3-ylmorpholin-2-yl]imidazo[1,5-a]pyrazin-1-yl}-N-[4-(trifluoromethyl)pyridin-2-yl]benzamide, TFA salt], less than 10 nM. As to `N#CC1(C(=O)N2CCC[C@@H](c3nc(-c4ccc(C(=O)Nc5cc(C(F)(F)F)ccn5)cc4)c4c(N)nccn34)C2)CC1` [Example 335, 4-(8-amino-3-{(3R)-1-[(1-cyanocyclopropyl)carbonyl]piperidin-3-yl}imidazo[1,5-a]pyrazin-1-yl)-N-[4-(trifluoromethyl)pyridin-2-yl]benzamide], the IC50 was less than 10 nM.

As to `CCOCC(=O)N1CCO[C@@H](c2nc(-c3ccc(C(=O)Nc4cc(C(F)(F)F)ccn4)cc3)c3c(N)nccn23)C1` [Example 518, 4-{8-amino-3-[(2R)-4-(ethoxyacetyl)morpholin-2-yl]imidazo[1,5-a]pyrazin-1-yl}-N-[4-(trifluoromethyl)pyridin-2-yl]benzamide], the IC50 was less than 10 nM. For `CCc1ccnc(NC(=O)c2ccc(-c3nc([C@@H]4CCCN(C(=O)C5(C)COC5)C4)n4c(C)cnc(N)c34)cc2)c1` [Example 455, 4-(8-amino-5-methyl-3-{(3R)-1-[(3-methyloxetan-3-yl)carbonyl]piperidin-3-yl}imidazo[1,5-a]pyrazin-1-yl)-N-(4-ethylpyridin-2-yl)benzamide] the value was less than 10 nM; for `Nc1nccn2c([C@H]3CC[C@H](C(F)(F)F)N(CCO)C3)nc(-c3ccc(C(=O)Nc4cc(C(F)(F)F)ccn4)cc3)c12` [Example 437, 4-{8-amino-3-[(3S,6R)-1-(2-hydroxyethyl)-6-(trifluoromethyl)piperidin-3-yl]imidazo[1,5-a]pyrazin-1-yl}-N-[4-(trifluoromethyl)pyridin-2-yl]benzamide], less than 10 nM. With `CC(=O)N1C[C@H](c2nc(-c3ccc(C(=O)Nc4cc(C(F)F)ccn4)cc3F)c3c(N)ncc(C)n23)CC[C@@H]1C` [Example 461, 4-{3-[(3R,6S)-1-acetyl-6-methylpiperidin-3-yl]-8-amino-5-methylimidazo[1,5-a]pyrazin-1-yl}-N-[4-(difluoromethyl)pyridin-2-yl]-3-fluorobenzamide], the IC50 is less than 10 nM. For `COCC(=O)N1CCO[C@@H](c2nc(-c3ccc(C(=O)Nc4cc(C(F)(F)F)ccn4)cc3F)c3c(N)nccn23)C1` [Example 551, 4-{8-amino-3-[(2R)-4-(methoxyacetyl)morpholin-2-yl]imidazo[1,5-a]pyrazin-1-yl}-3-fluoro-N-[4-(trifluoromethyl)pyridin-2-yl]benzamide, TFA salt] the value was less than 10 nM; for `CC1(C(=O)N2CCC[C@@H](c3nc(-c4ccc(C(=O)Nc5cscn5)cc4)c4c(N)nccn34)C2)COC1` [Example 350, 4-(8-amino-3-{(3R)-1-[(3-methyloxetan-3-yl)carbonyl]piperidin-3-yl}imidazo[1,5-a]pyrazin-1-yl)-N-1,3-thiazol-4-ylbenzamide], 10 to 100 nM; for `CC1(C(=O)N2CCC[C@@](C)(c3nc(-c4ccc(C(=O)Nc5cc(C(F)(F)F)ccn5)cc4)c4c(N)nccn34)C2)COC1` [Example 438, 4-(8-amino-3-{(3R)-3-methyl-1-[(3-methyloxetan-3-yl)carbonyl]piperidin-3-yl}imidazo[1,5-a]pyrazin-1-yl)-N-[4-(trifluoromethyl)pyridin-2-yl]benzamide], less than 10 nM. The same measure for `CC1(C(=O)N2CCC[C@@H](c3nc(-c4ccc(C(=O)Nc5cc(C(F)(F)F)ccn5)cc4)c4c(N)ncc(C#N)n34)C2)COC1` [Example 373, (R)-4-(8-amino-5-cyano-3-(1-(3-methyloxetane-3-carbonyl)piperidin-3-yl)imidazo[1,5-a]pyrazin-1-yl)-N-(4-(trifluoromethyl)pyridin-2-yl)benzamide]: less than 10 nM; for `Nc1ncnc2c1c(-c1ccc(C(=O)Nc3cc(C(F)(F)F)ccn3)cc1)nn2[C@@H]1CCCc2nn(CCO)cc21` [Example 562, 4-{4-amino-1-[(4R)-2-(2-hydroxyethyl)-4,5,6,7-tetrahydro-2H-indazol-4-yl]-1H-pyrazolo[3,4-d]pyrimidin-3-yl}-N-[4-(trifluoromethyl)pyridin-2-yl]benzamide, TFA salt]: less than 10 nM. For `CC1(C(=O)N2CCC[C@@H](c3nc(-c4ccc(C(=O)Nc5cnsc5)cc4)c4c(N)nccn34)C2)COC1` [Example 370, 4-(8-amino-3-{(3R)-1-[(3-methyloxetan-3-yl)carbonyl]piperidin-3-yl}imidazo[1,5-a]pyrazin-1-yl)-N-isothiazol-4-ylbenzamide], the 50% inhibitory concentration (IC50) was in the range of 10 to 100 nM.

The values are drawn from US9718828B2 (MERCK SHARP & DOHME CORP., priority 2011, dated 2017).
